Data reported in patent US5250679A, “Nonpeptidyl platelet aggregation inhibitors having specificity for the GPIIb III receptor” (Genentech, Inc., priority 1992, dated 1993).
Where a name gives a salt, the structure may show the parent alone. Read-outs that look alike come from different tables or passages of the source.

Assays:
[1] = system: human platelet rich plasma (PRP); assay: In Vitro Human Platelet Aggregation Assay (PA); format: cell-based; conditions: Homo sapiens, Platelet
Method: In addition to the GPIIb IIIa ELISA assay, platelet aggregation assays may be performed in human platelet rich plasma (PRP). […] The blood is centrifuged at 160×g for 10 min at 22° C. and then allowed to stand for 5 min after which the PRP is decanted. Platelet poor plasma (PPP) is isolated from the remaining blood after centrifugation at 2000×g for 25 min. The platelet count of the PRP is adjusted to ca. 300,000 per microliter with PPP.
A 225 mL aliquot of PRP plus 25 mL of either a dilution of the test sample or a control (PBS) is incubated for 5 min in a Chrono-log Whole Blood Aggregometer at 25° C. An aggregating agent (collagen, 1 mg/ml; U46619, 100 ng/ml; or ADP, 8 mM) is added and the platelet aggregation recorded.
Platelet aggregation assays are performed in human platelet rich plasma (PRP). […] The blood is centrifuged at 160×g for 10 minutes at 22° C. and allowed to stand for 5 minutes after which the PRP is decanted. Platelet poor plasma (PPP) is isolated from the remaining blood after centrifugation at 2000×g for 25 minutes. The platelet count of the PRP is diluted to about 300,000 platelets per microliter with PPP.
A 225 ml aliquot of PRP plus 25 ml of either a dilution of the test inhibitor sample or a control (PBS) is incubated for 5 minutes in a Chrono-log Whole Blood Aggregometer at 25° C. An aggregating agent (collagen, 1 mg/ml; U46619, 100 ng/ml; or ADP, 17 mM) is added and the transmission is recorded.

[2] = biological target: T1, GP IIb IIIa (Homo sapiens, UniProt P05106+P08514); assay: Fibrinogen-GP IIb IIIa Receptor ELISA Binding Assay (Fg/IIbIIIa)
T1 construct: from tissue; host or cells: outdated human platelets
T1 sequence (P08514 32-887 limits assumed): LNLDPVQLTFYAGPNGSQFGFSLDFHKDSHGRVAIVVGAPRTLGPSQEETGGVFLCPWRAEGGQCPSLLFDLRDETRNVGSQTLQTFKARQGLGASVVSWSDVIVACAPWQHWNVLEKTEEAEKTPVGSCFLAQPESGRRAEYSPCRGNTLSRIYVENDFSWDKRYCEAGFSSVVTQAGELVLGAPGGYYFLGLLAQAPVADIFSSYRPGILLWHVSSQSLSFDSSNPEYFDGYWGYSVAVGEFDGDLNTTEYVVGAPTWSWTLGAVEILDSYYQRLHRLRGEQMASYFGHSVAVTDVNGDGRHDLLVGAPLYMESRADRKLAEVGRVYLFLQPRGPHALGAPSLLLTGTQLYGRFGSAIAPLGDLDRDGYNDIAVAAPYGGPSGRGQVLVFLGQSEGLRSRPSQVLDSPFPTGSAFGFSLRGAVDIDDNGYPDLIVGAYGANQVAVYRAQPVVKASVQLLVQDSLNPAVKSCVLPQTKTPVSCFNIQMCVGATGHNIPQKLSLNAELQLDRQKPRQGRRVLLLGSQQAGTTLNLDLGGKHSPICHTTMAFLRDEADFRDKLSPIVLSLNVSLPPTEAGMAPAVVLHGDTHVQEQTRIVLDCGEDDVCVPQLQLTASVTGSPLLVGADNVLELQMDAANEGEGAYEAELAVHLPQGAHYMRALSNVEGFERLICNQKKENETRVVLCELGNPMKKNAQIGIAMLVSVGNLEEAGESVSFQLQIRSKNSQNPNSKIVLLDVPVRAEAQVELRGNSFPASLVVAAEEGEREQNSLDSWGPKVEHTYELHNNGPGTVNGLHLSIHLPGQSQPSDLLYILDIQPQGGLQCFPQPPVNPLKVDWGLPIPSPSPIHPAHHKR
T1 sequence (P08514 891-1039 partner limits assumed): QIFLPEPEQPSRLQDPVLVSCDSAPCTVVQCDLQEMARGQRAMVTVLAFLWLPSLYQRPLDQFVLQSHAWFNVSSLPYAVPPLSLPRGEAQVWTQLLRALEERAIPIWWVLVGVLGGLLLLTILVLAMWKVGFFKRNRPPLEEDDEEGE
T1 sequence (P05106 27-788): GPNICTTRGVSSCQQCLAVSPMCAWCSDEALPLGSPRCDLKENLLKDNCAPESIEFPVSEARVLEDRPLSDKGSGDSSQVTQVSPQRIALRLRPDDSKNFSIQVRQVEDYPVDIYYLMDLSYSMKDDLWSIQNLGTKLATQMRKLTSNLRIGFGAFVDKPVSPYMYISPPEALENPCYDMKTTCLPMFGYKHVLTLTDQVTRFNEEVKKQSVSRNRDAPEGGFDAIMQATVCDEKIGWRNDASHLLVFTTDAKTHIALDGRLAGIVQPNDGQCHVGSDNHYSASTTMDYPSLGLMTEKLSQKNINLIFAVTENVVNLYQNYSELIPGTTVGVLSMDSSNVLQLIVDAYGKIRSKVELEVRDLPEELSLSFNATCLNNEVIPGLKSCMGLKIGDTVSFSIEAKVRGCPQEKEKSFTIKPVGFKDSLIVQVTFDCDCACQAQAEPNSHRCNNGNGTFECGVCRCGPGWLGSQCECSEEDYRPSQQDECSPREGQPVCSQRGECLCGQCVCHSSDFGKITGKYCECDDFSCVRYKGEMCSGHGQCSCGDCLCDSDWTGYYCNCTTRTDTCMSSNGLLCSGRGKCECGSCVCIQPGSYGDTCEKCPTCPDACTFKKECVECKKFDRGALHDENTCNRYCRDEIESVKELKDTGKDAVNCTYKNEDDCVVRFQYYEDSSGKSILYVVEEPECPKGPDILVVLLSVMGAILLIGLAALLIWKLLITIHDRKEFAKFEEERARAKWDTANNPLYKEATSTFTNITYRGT
Method: Briefly, microtiter plates are coated with fibrinogen (10 mg/ml) and then blocked with TACTS buffer containing 0.5% bovine serum albumin (BSA). […] After another wash a goat anti-mouse IgG conjugated to horseradish peroxidase is added. […] The reaction is stopped with 1N sulfuric acid and the absorbance at 492 nm is recorded. […] Outdated human platelets are washed 3 times with 10 mM tris-HCl, 150 mM NaCl (TBS), 1 mM EDTA, pH 7.5, and centrifuged at 2000×g to pellet cells. […] The supernatant fraction is collected and the supernatant is loaded onto a concanavalin-A column, previously equilibrated in TBS, 1 mM Ca2 Cl2, 0.1% Triton, 0.05% NaN3 and eluted with 0.2M a-methylmannoside. Fractions are pooled and loaded onto a heparin-agarose column. The flowthrough is collected and concentrated on an Amicon YM 30 filter to a volume of approximately 5-10 ml. The concentrate is then applied to an S-300 column (500 ml) and 6 ml fractions are collected. The GP IIb IIIa containing fractions are collected, pooled, and stored at -80° C. […] The precipitate is spun down in appropriate size bottles at 2000×g. The supernatant is decanted and the precipitate resuspended in 150 mM NaCl (approximately 50% of the original volume). […] The suspension is spun down and the precipitate is resuspended in Tris-saline in a minimal volume (approximately 5% of the original volume). Any remaining insoluble material is spun down at 2000 rpm in a Sorval type centrifuge and the fibrinogen supernatant is decanted and dialyzed overnight at 4° C. against Tris-saline. Characterization of the fibrinogen is by the Bradford protein assay, SDS-PAGE, and/or Western blotting using well known standard procedures. Briefly, 96 well plates are coated (Type Nunc 1 MaxisorpTM) with 10 mg/ml purified fibrinogen ([…]), and allowed to stand overnight at 4° C. […] The plates are again washed three times with PBS/Tween and then […] of sample in TNCNT is added. The mixture is incubated for 15 minutes at room temperature on a plate shaker. […] Fifty ml of this diluted GP IIb IIIa is then added to each well and incubated on a plate shaker at room temperature. After one hour, the plates are washed four times with PBS/Tween and 100 ml of a polyclonal or monoclonal antibody specific for GP IIIa such as AP3 (1 mg/ml) (See e.g. […] After a one hour incubation at room temperature on a plate shaker, the samples are washed 4 times with PBS/Tween. […] The color develops within about 3 to 20 minutes and the reaction is stopped with 100 ml 1M H2 SO4. The optical density at 492 nm vs 405 nm is recorded and IC50 values are determined.

[3] = citrate, read-out: PA IC50 (μM) (citrate)
[4] = Example 29, Cmpd # 1-105, read-out: IC50 Fg/IIbI
[5] = Example 30, G # table, read-out: IC50 (μM) Fg/IIbIIIa
[6] = Examples 29 and 30, Cmpd # tables, read-out: IC50 (μM) Fg/IIbIIIa

Structure (SMILES) | IC50 [1, 3] [µM] | IC50 [2, 4] [µM] | IC50 [2, 5] [µM] | IC50 ([1]; heparin, read-out: PA IC50 (μM) (heparin)) [µM] | IC50 [2, 6] [µM]
CC(CC(=O)O)N1CC(=O)N(C)c2ccc(C#CCCCNC(=N)N)cc2C1=O (stereo not shown) [Cmpd 38, 1-methyl-4-(2-carboxy-1-methylethyl)-7-(5-guanidino-1-pentynyl)-3,4-dihydro-1H-1,4, benzodiazepine-2,5-dione trifluroacetate] | 1.19 | 0.018 | 0.018 | – | –
O=C(O)CCN1CC(=O)N(Cc2ccc(Cl)cc2)c2ccc(-c3ccc(N4CCNCC4)cc3)cc2C1=O [Cmpd 73, 1-(p-chlorobenzyl)-7-[4-(1-piperazine)phenyl]-4-(2-carboxyethyl)-3,4-dihydro-1H-1,4-benzodiazpine-2,4-dione trifluoroacetate] | 0.67 | 0.007 | 0.007 | 2.3 | –
N=C(N)NCCCCCc1ccc2c(c1)C(=O)N(CCC(=O)O)CC(=O)N2Cc1ccc2ccccc2c1 [Cmpd 75, 1-(2-napthyl)methyl-4-(2-carboxyethyl)-7-(5-guanidinopentyl)-3,4-dihydro-1H-1,4-benzodiazepine-2,5-dione trifluoroacetate] | 6.88 | 0.011 | 0.011 | – | –
NCCCCCc1ccc2c(c1)C(=O)N(CCC(=O)O)CC(=O)N2Cc1ccc2ccccc2c1 [Cmpd 76, 1-(2-napthyl)methyl-4-(2-carboxyethyl)-7-(5-aminopentyl)-3,4-dihydro-1H-1,4-benzodiazepine-2,5-dione trifluoroacetate] | 28.9 | 0.077 | 0.077 | – | –
N=C(N)NCCCCCc1ccc2c(c1)C(=O)N(CCC(=O)O)CC(=O)N2Cc1cccc2ccccc12 [Cmpd 77, 1-(1-napthyl)methyl-4-(2-carboxyethyl)-7-(5-guanidinopentyl)-3,4-dihydro-1H-1,4-benzodiazepine-2,5-dione trifluoroacetate] | 2.65 | 0.008 | 0.008 | – | –
NCCCCCc1ccc2c(c1)C(=O)N(CCC(=O)O)CC(=O)N2Cc1cccc2ccccc12 [Cmpd 78, 1-(1-napthyl)methyl-4-(2-carboxyethyl)-7-(5-aminopentyl)-3,4-dihydro-1H-1,4-benzodiazepine-2,5-dione trifluoroacetate] | 6.53 | 0.066 | 0.066 | – | –
COc1ccc(CN2C(=O)CN(CCC(=O)O)C(=O)c3cc(CCCCCCN)ccc32)cc1 [Cmpd 81, 1-(p-methoxybenzyl)-4-(2-carboxyethyl)-7-(6-aminohexyl)-3,4-dihydro-1H-1,4-benzodiazepine-2,5-dione trifluoroacetate] | 0.98 | 0.023 | 0.023 | – | –
NCCCCCCc1ccc2c(c1)C(=O)N(CCC(=O)O)CC(=O)N2Cc1cccc2ccccc12 [Cmpd 82, 1-(1-napthyl)methyl-4-(2-carboxyethyl)-7-(6-aminohexyl)-3,4-dihydro-1H-1,4-benzodiazepine-2,5-dione trifluoroacetate] | 0.76 | 0.015 | 0.015 | – | –
NCCCCCCc1ccc2c(c1)C(=O)N(CCC(=O)O)CC(=O)N2Cc1ccc2ccccc2c1 [Cmpd 83, 1-(2-napthyl)methyl-4-(2-carboxyethyl)-7-(6-aminohexyl)-3,4-dihydro-1H-1,4-benzodiazepine-2,5-dione trifluoroacetate] | 3.19 | 0.017 | 0.017 | – | –
COc1ccc(CN2C(=O)CN(CCC(=O)O)C(=O)c3cc(CCCCCCNC(=N)N)ccc32)cc1 [Cmpd 84, 1-(p-methoxybenzyl)-4-(2-carboxyethyl)-7-(6-guanidinohexyl)-3,4-dihydro-1H-1,4-benzodiazepine-2,5-dione trifluoroacetate] | 10.4 | 0.024 | 0.024 | – | –
N=C(N)NCCCCCCc1ccc2c(c1)C(=O)N(CCC(=O)O)CC(=O)N2Cc1cccc2ccccc12 [Cmpd 85, 1-(1-napthyl)methyl-4-(2-carboxyethyl)-7-(6-guanidinohexyl)-3,4-dihydro-1H-1,4-benzodiazepine-2,5-dione trifluoroacetate] | 6.2 | 0.014 | 0.014 | – | –
NCCCCCCc1ccc2c(c1)C(=O)N(CCC(=O)O)CC(=O)N2Cc1cccc(NC(=O)CCCN)c1 [Cmpd 112, 1-[3-(N-(4-aminobuturyl))aminophenyl]methyl-4-(2-carboxyethyl)-7-(6-aminohexyl)-3,4-dihydro-1H-1,4-benzodiazapine-2,5-dione bistrifluoroacetate] | 0.4 | – | 0.008 | – | 0.008
N=C(N)NCCCCCCc1ccc2c(c1)C(=O)N(CCC(=O)O)CC(=O)N2Cc1cccc(NC(=O)CCCNC(=N)N)c1 [Cmpd 113] | 0.87 | – | 0.01 | – | 0.01
NCCCCCCc1ccc2c(c1)C(=O)N(CCC(=O)O)CC(=O)N2Cc1cccc(NC(=O)CCCCN)c1 [Cmpd 114] | 0.31 | – | 0.008 | – | 0.008
N=C(N)NCCCCCCc1ccc2c(c1)C(=O)N(CCC(=O)O)CC(=O)N2Cc1cccc(NC(=O)CCCCNC(=N)N)c1 [Cmpd 115] | 0.92 | – | 0.018 | – | 0.013
NCCCCCCc1ccc2c(c1)C(=O)N(CCC(=O)O)CC(=O)N2Cc1cccc(NC(=O)CCCCCN)c1 [Cmpd 116] | 0.27 | – | 0.011 | – | 0.011
N=C(N)NCCCCCCc1ccc2c(c1)C(=O)N(CCC(=O)O)CC(=O)N2Cc1cccc(NC(=O)CCCCCNC(=N)N)c1 [Cmpd 117] | 0.64 | – | 0.013 | – | 0.013
NCCCC#Cc1ccc2c(c1)C(=O)N(CCC(=O)O)CCC2 [Cmpd 153, 2-(2-carboxyethyl)-8-(5-aminopentynyl)-2,3,4,5-tetrahydro-1H-2-benzazepin-1-one trifluoroacetate] | – | – | – | – | > 100
N=C(N)NCCCC#Cc1ccc2c(c1)C(=O)N(CCC(=O)O)CCC2 [Cmpd 154, 2-(2-carboxyethyl)-8-(5-guanidinopentynyl)-2,3,4,5-tetrahydro-1H-2-benzazepin-1-one trifluoroacetate] | – | – | – | – | 20
NCCCCCc1ccc2c(c1)C(=O)N(CCC(=O)O)CCC2 [Cmpd 155] | – | – | – | – | > 100
N=C(N)NCCCCCc1ccc2c(c1)C(=O)N(CCC(=O)O)CCC2 [Cmpd 156] | – | – | – | – | ~100
N=C(N)c1ccc(COc2ccc3c(c2)C(=O)N(CCC(=O)O)CCC3)cc1 [Cmpd 157, 2-(2-carboxyethyl)-8-(4-amidinobenzyloxy)-2,3,4,5-tetrahydro-1H-2-benzazepin-1-one trifluoroacetate] | – | – | – | – | 0.137
N=C(N)NCCCc1cccc(C(=O)NCCC(=O)O)c1 [Cmpd 158] | – | – | – | – | 2.3
N=C(N)NCC#Cc1cccc(C(=O)NCCC(=O)O)c1 [Cmpd 159] | – | – | – | – | 0.552
N=C(N)NCCC#Cc1cccc(C(=O)NCCC(=O)O)c1 [Cmpd 160] | – | – | – | – | 1.01
NCCCC#Cc1cccc(C(=O)NCCC(=O)O)c1 [Cmpd 161] | – | – | – | – | 9
N=C(N)NCCCC#Cc1cccc(C(=O)NCCC(=O)O)c1 [Cmpd 162] | – | – | – | – | 1
NCCCCC#Cc1cccc(C(=O)NCCC(=O)O)c1 [Cmpd 163] | – | – | – | – | 2.7
N=C(N)NCCCCC#Cc1cccc(C(=O)NCCC(=O)O)c1 [Cmpd 164] | – | – | – | – | 3.4
